Assay results taken from patent publication US6461997B1, “Triazole sulfones having herbicidal activity” (Monsanto Technology LLC, priority 1999, dated 2002).

What was measured:
[1] = tested on: SASKR (russian thistle); test: Pre-emergence herbicidal activity, cool season; type: in vivo, Salsola kali; conditions: lowest tested rate with 80% or greater inhibition; rates 300, 100, 30, 10 g/ha; about 14 days
Method: (§1) Tables 5 to 8 summarize results of tests conducted as described below to determine the pre-emergence herbicidal activity, in the form of a GR80 value, of illustrative compounds of this invention. […] Compounds of the invention were typically applied at rates of 300, 100, 30, and 10 g/ha. Where herbicidal activity was evident but 80% inhibition was not achieved at the highest rate tested, an asterisk (*) is shown in the following tables.
(§2) The pre-emergence tests were conducted by the following procedure. Topsoil was sieved to pass through a 1.27 cm screen. Fertilizer was added to the topsoil and the mixture was then sterilized by heating. The topsoil mixture was placed in a pot and compacted to a depth of 1.0 to 1.25 cm from the top of the pot. Seeds of each of several monocotyledonous and dicotyledonous annual plant species were placed on top of the soil. Additional soil was subsequently placed over the seeds to level-fill the pot. A known amount of each test compound dissolved or suspended in an appropriate organic solvent was diluted with a 50:50 mix of acetone and water and applied to the surface of the soil. After treatment the plants were placed in a greenhouse where they received 0.64 cm of overhead irrigation. All subsequent watering consisted of a light overhead mist and/or subirrigation as needed for germination and growth. Tables 5 and 6 below relate to warm season plant species which were placed after pre-emergence treatment in a greenhouse with a 30/21° C. day/night temperature regime. Tables 7 and 8 below relates to cool season plant species placed after pre-emergence treatment in a greenhouse or growth chamber with an 18/13° C. day/night temperature regime.
(§3) Approximately 14 days after planting and treating, the plants were observed and herbicidal efficacy recorded as percent inhibition by comparison with untreated plants.
(§4) The plant species usually regarded as weeds which were utilized in the tests are identified in the tables below according to the following legend, in which “d” indicates a dicotyledonous species and “m” a monocotyledonous species. All monocotyledonous species included in the tests herein are grasses.

[2] = tested on: STEME (common chickweed); test: Pre-emergence herbicidal activity, cool season; type: in vivo, Stellaria media; conditions: lowest tested rate with 80% or greater inhibition; rates 300, 100, 30, 10 g/ha; about 14 days
Method: as §1, §2, §3, §4

[3] = tested on: DIGSA (large crabgrass); test: Pre-emergence herbicidal activity, warm season; type: in vivo, Digitaria sanguinalis; conditions: GR80 = lowest tested rate (300, 100, 30, 10 g/ha) with 80% or greater inhibition; approx. 14 days after treating; 30/21° C.
Method: as §1, §2, §3, §4

[4] = tested on: SOLNI (black nightshade); test: Pre-emergence herbicidal activity, warm season; type: in vivo, Solanum nigrum; conditions: GR80 = lowest tested rate (300, 100, 30, 10 g/ha) with 80% or greater inhibition; approx. 14 days after treating; 30/21° C.
Method: as §1, §2, §3, §4

[5] = tested on: POLCO (wild buckwheat); test: Pre-emergence herbicidal activity, cool season; type: in vivo, Polygonum convolvulus; conditions: lowest tested rate with 80% or greater inhibition; rates 300, 100, 30, 10 g/ha; about 14 days
Method: as §1, §2, §3, §4

[6] = tested on: SINAR (wild mustard); test: Pre-emergence herbicidal activity, cool season; type: in vivo, Sinapis arvensis; conditions: lowest tested rate with 80% or greater inhibition; rates 300, 100, 30, 10 g/ha; about 14 days
Method: as §1, §2, §3, §4

[7] = tested on: SORHA (johnsongrass (seedling)); test: Pre-emergence herbicidal activity, warm season; type: in vivo, Sorghum halepense; conditions: GR80 = lowest tested rate (300, 100, 30, 10 g/ha) with 80% or greater inhibition; approx. 14 days after treating; 30/21° C.
Method: as §1, §2, §3, §4

[8] = tested on: PANMI (wild proso millet); test: Pre-emergence herbicidal activity, warm season; type: in vivo, Panicum miliaceum; conditions: GR80 = lowest tested rate (300, 100, 30, 10 g/ha) with 80% or greater inhibition; approx. 14 days after treating; 30/21° C.
Method: as §1, §2, §3, §4

[9] = tested on: SETFA (giant foxtail); test: Pre-emergence herbicidal activity, warm season; type: in vivo, Setaria faberi; conditions: GR80 = lowest tested rate (300, 100, 30, 10 g/ha) with 80% or greater inhibition; approx. 14 days after treating; 30/21° C.
Method: as §1, §2, §3, §4

[10] = tested on: CIRAR (canada thistle (seedling)); test: Pre-emergence herbicidal activity, warm season; type: in vivo, Cirsium arvense; conditions: GR80 = lowest tested rate (300, 100, 30, 10 g/ha) with 80% or greater inhibition; approx. 14 days after treating; 30/21° C.
Method: as §1, §2, §3, §4

[11] = tested on: VERPE (creeping speedwell); test: Pre-emergence herbicidal activity, cool season; type: in vivo, Veronica persicaria; conditions: lowest tested rate with 80% or greater inhibition; rates 300, 100, 30, 10 g/ha; about 14 days
Method: as §1, §2, §3, §4

[12] = tested on: GALAP (catchweed bedstraw); test: Pre-emergence herbicidal activity, cool season; type: in vivo, Galium aparine; conditions: lowest tested rate with 80% or greater inhibition; rates 300, 100, 30, 10 g/ha; about 14 days
Method: as §1, §2, §3, §4

[13] = tested on: BRAPP (broadleaf signalgrass); test: Pre-emergence herbicidal activity, warm season; type: in vivo, Brachiaria platyphylla; conditions: GR80 = lowest tested rate (300, 100, 30, 10 g/ha) with 80% or greater inhibition; approx. 14 days after treating; 30/21° C.
Method: as §1, §2, §3, §4

[14] = tested on: ECHCG (barnyardgrass); test: Pre-emergence herbicidal activity, warm season; type: in vivo, Echinochloa crus-galli; conditions: GR80 = lowest tested rate (300, 100, 30, 10 g/ha) with 80% or greater inhibition; approx. 14 days after treating; 30/21° C.
Method: as §1, §2, §3, §4

[15] = tested on: AMARE (redroot pigweed); test: Pre-emergence herbicidal activity, warm season; type: in vivo, Amaranthus retroflexus; conditions: GR80 = lowest tested rate (300, 100, 30, 10 g/ha) with 80% or greater inhibition; approx. 14 days after treating; 30/21° C.
Method: as §1, §2, §3, §4

[16] = tested on: AGSST (creeping bentgrass); test: Pre-emergence herbicidal activity, cool season; type: in vivo, Agrostis stolonifera; conditions: GR80 = lowest tested rate (300, 100, 30, 10 g/ha) with 80% or greater inhibition; approx. 14 days after treating; 18/13° C.
Method: as §1, §2, §3, §4

[17] = tested on: LAMPU (purple deadnettle); test: Pre-emergence herbicidal activity, cool season; type: in vivo, Lamium purpureum; conditions: lowest tested rate with 80% or greater inhibition; rates 300, 100, 30, 10 g/ha; about 14 days
Method: as §1, §2, §3, §4

[18] = tested on: ALOMY (blackgrass); test: Pre-emergence herbicidal activity, cool season; type: in vivo, Alopecurus myosuroides; conditions: GR80 = lowest tested rate (300, 100, 30, 10 g/ha) with 80% or greater inhibition; approx. 14 days after treating; 18/13° C.
Method: as §1, §2, §3, §4

[19] = tested on: CHEAL (common lambsquarters); test: Pre-emergence herbicidal activity, warm season; type: in vivo, Chenopodium album; conditions: GR80 = lowest tested rate (300, 100, 30, 10 g/ha) with 80% or greater inhibition; approx. 14 days after treating; 30/21° C.
Method: as §1, §2, §3, §4

[20] = tested on: SETVI (green foxtail); test: Pre-emergence herbicidal activity, cool season; type: in vivo, Setaria viridis; conditions: GR80 = lowest tested rate (300, 100, 30, 10 g/ha) with 80% or greater inhibition; approx. 14 days after treating; 18/13° C.
Method: as §1, §2, §3, §4

[21] = tested on: POROL (common purslane); test: Pre-emergence herbicidal activity, warm season; type: in vivo, Portulaca oleracea; conditions: GR80 = lowest tested rate (300, 100, 30, 10 g/ha) with 80% or greater inhibition; approx. 14 days after treating; 30/21° C.
Method: as §1, §2, §3, §4

[22] = tested on: DATST (jimsonweed); test: Pre-emergence herbicidal activity, warm season; type: in vivo, Datura stramonium; conditions: GR80 = lowest tested rate (300, 100, 30, 10 g/ha) with 80% or greater inhibition; approx. 14 days after treating; 30/21° C.
Method: as §1, §2, §3, §4

[23] = tested on: SORVU (shattercane); test: Pre-emergence herbicidal activity, warm season; type: in vivo, Sorghum vulgare; conditions: GR80 = lowest tested rate (300, 100, 30, 10 g/ha) with 80% or greater inhibition; approx. 14 days after treating; 30/21° C.
Method: as §1, §2, §3, §4

Row | Structure (SMILES) | Pre-emergence activity GR80, SASKR [1] | Pre-emergence activity GR80, STEME [2] | Pre-emergence activity (GR80) DIGSA [3] [g/ha] | Pre-emergence activity (GR80) SOLNI [4] [g/ha] | Pre-emergence activity GR80, POLCO [5] | Pre-emergence activity GR80, SINAR [6] | Pre-emergence activity (GR80) SORHA [7] [g/ha] | Pre-emergence activity (GR80) PANMI [8] [g/ha] | Pre-emergence activity (GR80) SETFA [9] [g/ha] | Pre-emergence activity (GR80) CIRAR [10] [g/ha] | Pre-emergence activity GR80, VERPE [11] | Pre-emergence activity GR80, GALAP [12] | Pre-emergence activity (GR80) ECHCG [14] [g/ha] | Pre-emergence activity (GR80) AMARE [15] [g/ha] | Pre-emergence activity (GR80) AGSST [16] [g/ha] | Pre-emergence activity GR80, LAMPU [17] | Pre-emergence activity (GR80) ALOMY [18] [g/ha] | Pre-emergence activity (GR80) CHEAL [19] [g/ha] | Pre-emergence activity (GR80) SETVI [20] [g/ha] | Pre-emergence activity (GR80) POROL [21] [g/ha] | other results
1 | O=C(N1CCCC1)n1cnc(S(=O)(=O)C(F)(F)C(F)F)n1 [Example 59] | [empty] | 300 g/ha | 30 | 300 | 300 g/ha | [empty] | 100 | 100 | 300 | 300 | [empty] | 100 g/ha | 300 | 100 | 300 | 100 g/ha | 300 | 100 | 300 | – | Pre-emergence activity (GR80) BRAPP [13]: 100 g/ha
2 | CN(C(=O)n1cnc(S(=O)(=O)C(F)(F)C(F)F)n1)C1CCCCC1 [Example 67] | [empty] | [empty] | – | – | 300 g/ha | [empty] | 300 | 100 | 300 | – | 100 g/ha | 300 g/ha | 300 | 300 | 100 | [empty] | – | 100 | 300 | 300 | –
3 | CN(Cc1ccccc1)C(=O)n1cnc(S(=O)(=O)C(F)F)n1 [Example 33] | 300 g/ha | 100 g/ha | – | – | [empty] | [empty] | – | 300 | – | – | 300 g/ha | [empty] | – | – | 300 | 30 g/ha | – | – | – | – | Pre-emergence activity (GR80) DATST [22]: 300 g/ha
4 | CCCN(CC)C(=O)n1cnc(S(=O)(=O)C(F)(F)Cl)n1 [Example 87] | [empty] | [empty] | 300 | 100 | [empty] | [empty] | 100 | 30 | 300 | 300 | 100 g/ha | 300 g/ha | 100 | 300 | 100 | 100 g/ha | 100 | 300 | 100 | 100 | Pre-emergence activity (GR80) SORVU [23]: 300 g/ha; Pre-emergence activity (GR80) BRAPP [13]: 300 g/ha
5 | O=C(N1CCOCC1)n1cnc(S(=O)(=O)C(F)(F)Cl)n1 [Example 84] | [empty] | [empty] | – | – | 300 g/ha | [empty] | – | – | – | – | [empty] | [empty] | – | – | – | 300 g/ha | – | – | – | – | Pre-emergence activity (GR80) DATST [22]: 300 g/ha
6 | O=C(N1CCCC1)n1cnc(S(=O)(=O)C(F)(F)C(F)F)n1 [Example 71] | [empty] | 300 g/ha | – | 300 | 300 g/ha | [empty] | 300 | 300 | 300 | 300 | [empty] | 100 g/ha | – | 300 | 100 | 300 g/ha | 300 | 30 | 100 | 300 | –
7 | CCN(CC)C(=S)n1cnc(S(=O)(=O)C(F)(F)C(F)F)n1 [Example 70] | 300 g/ha | [empty] | 300 | 300 | 300 g/ha | 300 g/ha | – | 300 | 300 | 300 | [empty] | [empty] | – | – | 300 | [empty] | – | 300 | 300 | 300 | –
8 | CN(C)C(=O)n1cnc(S(=O)(=O)C(F)(F)C(F)F)n1 [Example 61] | 100 g/ha | 300 g/ha | – | – | [empty] | 300 g/ha | – | 300 | – | 300 | 100 g/ha | 100 g/ha | 300 | – | 100 | 300 g/ha | 100 | 300 | 300 | 300 | –
9 | CCSC(F)(F)S(=O)(=O)c1ncn(C(=O)N2CCOCC2)n1 [Example 48] | [empty] | 300 g/ha | – | – | 300 g/ha | [empty] | – | – | – | – | [empty] | 300 g/ha | – | – | – | [empty] | – | – | – | – | Pre-emergence activity (GR80) DATST [22]: 300 g/ha
